Entries after “also recorded” stand apart in the source; their conditions may differ.
Assays:
[1] = type: in vivo; settings: dose escalation up to 1600 mg BID
Description: Phase 1 dose escalation is being performed to determine maximum tolerated dose (MTD) safety, PK, PD, and preliminary anti-tumor activity in patients (“pts”) with B cell lymphoma or advanced solid tumors.
(§1) PK/PD relationship was analyzed. Tumor assessments were performed every 8 weeks.

[2] = tested on: ABC lymphoma cell lines; experiment: Combination with drugs that target the BCR/PI3K pathways in ABC lymphoma cell lines; type: cell-based
[3] = tested on: H3K27Me3 positive cells in the epidermis; experiment: Skin biopsy H3K27Me3 immunohistochemistry and PK/PD model; type: in vivo, human
Description: as §1
Skin biopsies were collected predose (Cycle 1, Day 1) and predose prior to Cycle 2, Day 1 for immunohistochemistry analysis.
An inhibitory Emax PK/PD model was fit to describe this relationship.

[4] = clinical; settings: human, in vivo; for AUC(0-t): AUC0-12 hr
Description: Blood samples for PK and skin biopsies for PD analysis were collected. PD samples were stained with H3K27me3 specific antibody and percent change from baseline in H3K27Me3 positive cells was determined. PK/PD relationship was analyzed. Tumor assessments were performed every 8 weeks.
Doses administered were 100 mg BID as a suspension (n=3) or tablet (n=3) formulation and 200, 400, 800 and 1600 mg as tablet formulation.

[5] = tested on: advanced solid tumors or B cell lymphoma; experiment: Phase 1 tumor assessments (anti-tumor activity); type: in vivo, human
Description: as §1

## CCN(c1cc(-c2ccc(CN3CCOCC3)cc2)cc(C(=O)NCc2c(C)cc(C)[nH]c2=O)c1C)C1CCOCC1 [EPZ-6438]
[1]
  MTD: has not been reached
[2]
  effect of combination with drugs that target the BCR/PI3K pathways: no effect observed
[3]; inhibitory Emax PK/PD model estimate
  maximal inhibition (Imax) of H3K27Me3 positive cells in skin: −44.4%
[3]; inhibitory Emax PK/PD model estimate, AUC exposure
  exposure associated with 50% of maximal inhibition (IC50): 487 ng·h/mL
[3]; model predicted, AUC exposure
  exposure associated with 90% of maximal inhibition (IC90): 4421 ng·h/mL
[3]; skin biopsies, Cycle 2 Day 1 vs predose baseline
  H3K27Me3 positive cells in skin: exposure-related decrease; also recorded: consistent decrease
[4]; 100 mg
  AUC0-12 hr: 0.337 µg·h/mL
  Tmax: 1.0 h
  AUC(0-t): 0.467 µg·h/mL
[4]; 100 mg, Tmax
  Tmax: 0.5 h
[4]; 200 mg
  AUC(0-t): 1.25 µg·h/mL
[4]; 200 mg, Cmax
  Cmax: 0.363 µg/mL
[4]; 200 mg, Tmax
  Tmax: 1 h
[4]; 200 mg, t1/2
  half-life: 3.42 h
[4]; 400 mg
  AUC(0-t): 1.72 µg·h/mL
[4]; 400 mg, Cmax
  Cmax: 0.476 µg/mL
[4]; 400 mg, Tmax
  Tmax: 2 h
[4]; 400 mg, t1/2
  half-life: 2.88 h
[4]; 800 mg
  AUC: 4.55 µg·h/mL
  AUC(0-t): 7.8 µg·h/mL
[4]; 800 mg, Cmax
  Cmax: 1.73 µg/mL
[4]; 800 mg, Tmax
  Tmax: 2 h
[4]; 800 mg, t1/2
  half-life: 3.81 h
[4]; 1600 mg
  Cmax: 4.125 µg/mL
  AUC(0-t): 18.9 µg·h/mL
[4]; 1600 mg, Tmax
  Tmax: 2 h
[4]; 1600 mg, t1/2
  half-life: 3.67 h
[4]; mean EPZ-6438 terminal half-life (t½)
  half-life: 3 to 6 h
[4]; po, Tmax
  Tmax: 1 to 2 h
[4]; po, half-life
  half-life: ~4 h
[4]; terminal half-life (t½)
  half-life: 3 to 6 h
[5]; 100 mg dose group
  Maximum tumor change: −78%
[5]; 200mg dose group
  Maximum tumor change: −87%
[5]; 1 transformed DLBCL, 100mg BID, and 1 PMBL, 200mg BID
  Partial responses in evaluable NHL pts: 2 of 4
